Measurements reported in patent publication US20190353647A1, “NOVEL REAL-TIME MULTIPLEXED, MULTI-COLOR BIOLUMINESCENCE RESONANCE ENERGY TRANSFER ASSAY, APPARATUS, AND USES THEREOF” (Universite de Bordeaux, priority 2016, published 2019).

Target: T1, TRPV1 (Homo sapiens, UniProt Q8NER1)
T1 construct: expressed in transfected cells; host or cells: HEK293T
Assay: Intermolecular BRET assay, TRPV1-Luc/YFP-CaM in HEK293T cells
Format: cell-based
Conditions: for Effect on CAPS-induced BRET increase: intermolecular test
Excerpt: In order to generate the BRET constructs, super Yellow Fluorescent Protein 2 and Renilla Luciferase II were used to improve the brightness of the assay. They were referred as YFP and Luc for short in the rest of the manuscript. The cDNA of Luc and YFP were first cloned together using a three-piece ligation in the BamHI/XhoI site of pcDNA3.1(+) (Invitrogen, Carlsbad, Calif., USA), yielding two expression vectors pcDNA3.1 YFP-Luc where YFP was cloned in-fusion at the N-terminal of Luc, and pcDNA3.1 Luc-YFP where Luc was cloned in-fusion at the N-terminal of YFP. Both YFP and Luc were amplified by PCR from the pcDNA3-YFP-EPAC-Luc vector. Luc was cloned either at the N-terminal of YFP as a HindIII-EcoRI fragment (primers used: “Luc_HindIII_ATGN-term sense” and “Luc_no Stop_EcoRI_N-term antisense”) or at the COOH-terminal of YFP as an EcoRI-XhoI fragment (primer used: “Luc_EcoRI_ATG_C-term sense” and “Luc_XhoI_Stop_C-term antisense”). In parallel, YFP was cloned either at the N-terminal of Luc as a HindIII-EcoRI fragment (primers used: “YFP_HindIII_ATG_N-term sense” and “YFP_no Stop_EcoRI_N-term antisense”) or at the COOH-terminal of Luc as a EcoRI-XhoI fragment (primer used: “YFP_EcoRI_ATG_C-term sense” and “YFP_XhoI_Stop_C-term antisense”). The sequence joining Luc and YFP sequence encoded […] (SEQ ID NO: 18) as a linker, and contained an AgeI restriction site. The YFP-hTRPV1-Luc expression vector was obtained by subcloning the human TRPV1 cDNA from the pDONR201-hTRPV1 vector (Harvard Medical School PlasmID Repository, clone HsCD00081472) as an EcoRI PCR fragment in the EcoRI site of the vector pcDNA3.1 YFP-Luc (primer used: “hTRPV1_EcoRI_Fus_Sense” and “hTRPV1_EcoRI_Fus_antisense”). The hTRPV1-Luc expression vector was obtained by subcloning the cDNA of hTRPV1 as a HindIII-EcoRI fragment in place of the YFP in the HindIII-EcoRI site of the pcDNA3.1 YFP-Luc vector (primer used: “hTRPV1_HindIII_ATG_Sense” and “hTRPV1_EcoRI_Fus_antisense”). The Luc-hTRPV3 expression vector was obtained by subcloning the cDNA of hTRPV3 (Harvard Medical School PlasmID Repository, clone HsCD00341603) as a AgeI-XhoI fragment in place of the YFP in the AgeI-XhoI sites of the pcDNA3.1 Luc-YFP vector (primer used: “hTRPV3_AgeI_ATG_Sense” and “hTRPV3_Stop_XhoI_antisense”). The hTRPV4-Luc expression vector was obtained by subcloning the cDNA of hTRPV4 as a BamHI-AgeI fragment in place of the YFP in the BamHI-AgeI site of the pcDNA3.1 YFP-Luc vector (primer used: “hTRPV4_BamHI_ATG_Sense” and hTRPV4_AgeI_Fus_antisense”). In each case, the sequence joining the cDNA of interest and either Luc or YFP sequence encoded […] (SEQ ID NO: 18) as a linker.
The cDNA of mAmetrine (Plasmid #54660) and LssmOrange (Plasmid #37130) were obtained from AddGene plasmid repository. The cDNA of aquamarine, mAmetrine and LssmOrange were all subcloned as a HindIII-EcoRI fragment in place of the YFP in the HindIII-EcoRI site of the pcDNA3.1 YFP-Luc vector (primer used: “YFP_HindIII_ATG_N-term sense” and “YFP_no Stop_EcoRI_N-term antisense”) to yield pcDNA3.1 FP-Luc expression vectors (“FP” being any fluorescent protein between aquamarine, mAmetrine and LssmOrange). […] A similar strategy was used to obtain the FP-CaM expression vector using the pcDNA3.1 FP-Luc expression vector instead of the pcDNA3.1 YFP-Luc.
HEK293T cells were maintained in Dulbecco's modified Eagle's medium-high Glucose (DMEM) (D6429, Sigma) supplemented with 10% fetal bovine serum, 100 units mL-1 penicillin and streptomycin. Twenty-four hours before transfection, cells were seeded at a density of 500,000 cells in 6-well dishes. Transient transfections were performed using polyethylenimine (PEI, linear, Mr 25,000; catalogue number 23966 Polysciences, Inc., Warrington, Pa., USA) with a PEI:DNA ratio of 4:1. Usually, 0.1-0.25 μg of the donor constructions and 1.75-1.9 μg of the acceptors constructions were transfected for the BRET measurement.

[1] = TRPV1-Luc/YFP-CaM titration, presence vs absence of CAPS
[2] = temperature rise from 25 to 42° C., TRPV1-Luc/YFP-CaM

T1 sequence (Q8NER1 whole entry): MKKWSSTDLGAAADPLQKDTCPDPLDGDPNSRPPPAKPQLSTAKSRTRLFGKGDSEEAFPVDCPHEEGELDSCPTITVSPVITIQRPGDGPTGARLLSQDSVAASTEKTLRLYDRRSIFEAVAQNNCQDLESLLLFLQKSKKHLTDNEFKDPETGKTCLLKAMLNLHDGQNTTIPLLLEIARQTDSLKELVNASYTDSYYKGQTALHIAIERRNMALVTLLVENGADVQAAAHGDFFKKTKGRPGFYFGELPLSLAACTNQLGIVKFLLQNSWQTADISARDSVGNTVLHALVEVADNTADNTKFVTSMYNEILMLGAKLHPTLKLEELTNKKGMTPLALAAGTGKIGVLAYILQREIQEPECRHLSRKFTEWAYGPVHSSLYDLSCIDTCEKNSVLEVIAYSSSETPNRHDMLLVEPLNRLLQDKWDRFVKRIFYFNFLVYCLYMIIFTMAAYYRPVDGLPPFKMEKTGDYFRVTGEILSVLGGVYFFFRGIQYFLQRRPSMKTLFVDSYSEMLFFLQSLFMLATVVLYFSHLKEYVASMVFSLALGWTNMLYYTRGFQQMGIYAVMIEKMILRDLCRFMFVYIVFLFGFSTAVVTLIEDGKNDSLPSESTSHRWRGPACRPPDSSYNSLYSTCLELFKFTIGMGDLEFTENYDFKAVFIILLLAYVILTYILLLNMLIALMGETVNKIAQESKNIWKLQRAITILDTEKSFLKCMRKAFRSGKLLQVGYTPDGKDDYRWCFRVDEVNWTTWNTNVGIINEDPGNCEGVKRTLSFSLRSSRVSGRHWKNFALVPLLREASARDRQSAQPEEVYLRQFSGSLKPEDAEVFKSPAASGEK

Compound: CC(=O)Nc1nc2c(Oc3cc(-c4ccc(C(F)(F)F)cc4)ncn3)cccc2s1 [AMG517]
- Effect on CAPS-induced BRET increase (TRPV1-Luc/YFP-CaM): inhibited

Compound: COc1cc(CNC(=O)CCCC/C=C/C(C)C)ccc1O [CAPS, Capsaicin]
- Sensitivity of TRPV1-Luc/YFP-CaM interaction (HEK293T, dose-response, FIG. 1): sensitive
- Change of basal BRET signal (TRPV1-Luc/YFP-CaM): increased with a first order kinetic
- BRET50 (concentration of YFP-CaM needed to reach 50% of maximal BRET signal) [1]: diminished
- Maximal BRET signal in BRET titration curves [1]: dramatically increased
- Change in CAPS potency on temperature rise [2]: leftward shift
- Change in maximal efficacy on temperature rise [2]: increase

Compound: Oc1cc2c(cc1O)CN(C(=S)NCCc1ccc(Cl)cc1)CCC2 [CPZ, Capsazepine]
- BRET signal on heating from 25 to 50° C. after preincubation (TRPV1-Luc/YFP-CaM, cells preincubated with the compound): no significant increase
- Effect on CAPS-induced BRET increase (TRPV1-Luc/YFP-CaM): inhibited
